Where two headings read alike, the source gives them in different places.
Experiments:
HDAC7 = molecular target: T1, HDAC7 (Homo sapiens, UniProt Q8WUI4); experiment: HDAC biochemical activity measurement (fluorescent substrate deacetylation);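 also: fluorogenic deacetylation assay using acetyl-lysine substrate at 20 µM, enzyme and compound incubated 30 min at 37 °C, then developer added, fluorescence read at 360/460 nm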; conditions: HDAC7; 37° C. 30 minutes
T1 sequence (Q8WUI4 1-952): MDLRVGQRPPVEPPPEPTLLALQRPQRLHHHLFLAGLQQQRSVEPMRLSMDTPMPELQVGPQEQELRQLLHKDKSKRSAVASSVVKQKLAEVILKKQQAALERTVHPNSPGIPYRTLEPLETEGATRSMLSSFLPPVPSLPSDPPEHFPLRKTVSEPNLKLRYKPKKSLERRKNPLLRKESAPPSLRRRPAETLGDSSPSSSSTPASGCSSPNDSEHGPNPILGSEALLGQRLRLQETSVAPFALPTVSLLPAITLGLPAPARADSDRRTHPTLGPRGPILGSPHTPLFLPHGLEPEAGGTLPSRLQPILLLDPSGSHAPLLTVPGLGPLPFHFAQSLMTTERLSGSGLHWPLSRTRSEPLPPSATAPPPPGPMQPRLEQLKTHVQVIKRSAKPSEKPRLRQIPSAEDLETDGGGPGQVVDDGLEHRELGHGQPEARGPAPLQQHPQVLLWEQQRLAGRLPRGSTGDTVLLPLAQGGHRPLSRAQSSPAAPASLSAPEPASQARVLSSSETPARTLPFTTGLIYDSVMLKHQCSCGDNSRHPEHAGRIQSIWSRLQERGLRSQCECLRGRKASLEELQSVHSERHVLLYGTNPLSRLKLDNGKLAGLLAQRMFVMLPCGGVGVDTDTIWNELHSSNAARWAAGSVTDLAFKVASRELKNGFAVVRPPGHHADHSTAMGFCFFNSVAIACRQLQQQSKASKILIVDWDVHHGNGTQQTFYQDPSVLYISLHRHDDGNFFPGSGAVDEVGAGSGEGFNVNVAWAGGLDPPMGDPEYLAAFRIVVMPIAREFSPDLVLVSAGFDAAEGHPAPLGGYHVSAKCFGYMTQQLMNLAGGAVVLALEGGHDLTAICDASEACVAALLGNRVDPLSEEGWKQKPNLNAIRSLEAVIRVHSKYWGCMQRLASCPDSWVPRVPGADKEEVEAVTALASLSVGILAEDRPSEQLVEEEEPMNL

[1] = tested on: A549 (human lung cancer cells); experiment: MTT cancer cell growth inhibition; format: cell-based; conditions: Homo sapiens, A549, 72 h, MTT, 72 hours incubation, read-out: GI50 A54
Excerpt: (§1) MTT assay principle is yellow MTT can penetrate membrane into the cell, succinic dehydrogenase of the mitochondria in living cells can make exogenous MTT reduction of insoluble in water of blue-violet acicular formazan for crystallization and deposition in the cell, crystallization can be dissolved dimethyl sulfoxide (DMSO) solution, detected its absorbance at 490 nm/570 nm wavelength by enzyme-linked immunosorbent assay, which can reflect the number of cells.
(§2) Using DMEM+10% FBS culture medium or using 1640+10% FBS culture, respectively.
(§3) a) Cells were seeded in 96-well plates with the inoculation of 1500/well, 190 μl/hole, 37° C., 5% of CO2 incubator overnight;
(§4) b) The next day each well was added 10 μl of different drugs. The final concentration of drug was 10^−5˜10^−10M, three parallel holes; 37° C., 5% CO2 culture incubator for 72 hours incubation;
(§5) c) Per well was added 20 μl 5 mg/ml of MTT, 37° C., 5% CO2 culture incubator for 4 hours incubation;
(§6) d) The supernatant was discarded. Each well was added 100 μl of DMSO and oscillation;
(§7) e) 570 nm readings. Calculate cell viability. GI50 calculation based on the results.

[2] = tested on: BGC-823 (human gastric cancer cells); experiment: MTT cancer cell growth inhibition; format: cell-based; conditions: Homo sapiens, BGC-823, 72 h, MTT, 72 hours incubation, read-out: GI50 BG
Excerpt: as §1, §2, §3, §4, §5, §6, §7

[3] = tested on: Bel-7402 (human hepatoma cells); experiment: MTT cancer cell growth inhibition; format: cell-based; conditions: Homo sapiens, Bel-7402, 72 h, MTT, 72 hours incubation, Bel-7402 cells; read-out: GI50 Bel-7402
Excerpt: as §1, §2, §3, §4, §5, §6, §7

[4] = tested on: DU145 (human prostate cancer cells); experiment: MTT cancer cell growth inhibition; format: cell-based; conditions: Homo sapiens, DU-145, 72 h, MTT, 72 hours incubation, read-out: GI50 Du1
Excerpt: as §1, §2, §3, §4, §5, §6, §7

[5] = tested on: H1975 (non-small cell lung adenocarcinoma); experiment: MTT cancer cell growth inhibition; format: cell-based; conditions: Homo sapiens, NCI-H1975, 72 h, MTT, 72 hours incubation, H1975 cells; read-out: GI50 H1975
Excerpt: as §1, §2, §3, §4, §5, §6, §7

[6] = tested on: HCC827 (human non-small cell lung cancer cells); experiment: MTT cancer cell growth inhibition; format: cell-based; conditions: Homo sapiens, HCC827, 72 h, MTT, 72 hours incubation, HCC827 cells; read-out: GI50 HCC827
Excerpt: as §1, §2, §3, §4, §5, §6, §7

[7] = tested on: HT1080 (human fibrosarcoma cells); experiment: MTT cancer cell growth inhibition; format: cell-based; conditions: Homo sapiens, HT-1080, 72 h, MTT, 72 hours incubation, read-out: GI50 HT1
Excerpt: as §1, §2, §3, §4, §5, §6, §7

[8] = tested on: Hela (human cervical cancer cells); experiment: MTT cancer cell growth inhibition; format: cell-based; conditions: Homo sapiens, HeLa, 72 h, MTT, 72 hours incubation, read-out: GI50 Hela
Excerpt: as §1, §2, §3, §4, §5, §6, §7

[9] = tested on: Huh-7 (human hepatoma cells); experiment: MTT cancer cell growth inhibition; format: cell-based; conditions: Homo sapiens, Huh-7, 72 h, MTT, 72 hours incubation, Huh-7 cells; read-out: GI50 Huh-7
Excerpt: as §1, §2, §3, §4, §5, §6, §7

[10] = tested on: K562 (human leukemia cells); experiment: MTT cancer cell growth inhibition; format: cell-based; conditions: Homo sapiens, K562, 72 h, MTT, 72 hours incubation, K562 cells; read-out: GI50 K562
Excerpt: as §1, §2, §3, §4, §5, §6, §7

[11] = tested on: KBM-5 (human chronic myelogenous leukemia); experiment: MTT cancer cell growth inhibition; format: cell-based; conditions: Homo sapiens, KBM5, 72 h, MTT, 72 hours incubation, KBM-5 cells; read-out: GI50 KBM-5
Excerpt: as §1, §2, §3, §4, §5, §6, §7

[12] = tested on: KBM5-T315I (human chronic myelogenous leukemia); experiment: MTT cancer cell growth inhibition; format: cell-based; conditions: Homo sapiens, 72 h, MTT, 72 hours incubation, KBM5-T315I cells; read-out: GI50 KBM5-T315I
Excerpt: as §1, §2, §3, §4, §5, §6, §7

[13] = tested on: MCF-7 (human breast cancer cells); experiment: MTT cancer cell growth inhibition; format: cell-based; conditions: Homo sapiens, MCF7, 72 h, 72 hours incubation, read-out: GI50 MCF
Excerpt: as §1, §2, §3, §4, §5, §6, §7

[14] = tested on: MDA-MB-231 (breast cancer cells); experiment: MTT cancer cell growth inhibition; format: cell-based; conditions: Homo sapiens, MDA-MB-231, 72 h, read-out: GI50 MDA-MB-231, MTT, 72 hours incubation, MDA-MB-231 cells
Excerpt: as §1, §2, §3, §4, §5, §6, §7

[15] = tested on: MOLT-4 (human acute lymphoblastic leukemia cells); experiment: MTT cancer cell growth inhibition; format: cell-based; conditions: Homo sapiens, MOLT-4, 72 h, MTT, 72 hours incubation, read-out: GI50 Mol
Excerpt: as §1, §2, §3, §4, §5, §6, §7

[16] = tested on: N-87 (human gastric cancer cells); experiment: MTT cancer cell growth inhibition; format: cell-based; conditions: Homo sapiens, 72 h, MTT, 72 hours incubation, N-87 cells; read-out: GI50 N-87
Excerpt: as §1, §2, §3, §4, §5, §6, §7

[17] = tested on: PANC-1 (Pac-1, human pancreatic cancer cells); experiment: MTT cancer cell growth inhibition; format: cell-based; conditions: Homo sapiens, PANC-1, 72 h, MTT, 72 hours incubation, read-out: GI50 PAN
Excerpt: as §1, §2, §3, §4, §5, §6, §7

[18] = tested on: SGC-7901 (human gastric cancer cells); experiment: MTT cancer cell growth inhibition; format: cell-based; conditions: Homo sapiens, SGC-7901, 72 h, MTT, 72 hours incubation, SGC-7901 cells; read-out: GI50 SGC-7901
Excerpt: as §1, §2, §3, §4, §5, §6, §7

[19] = tested on: U937 (human leukemia cells); experiment: MTT cancer cell growth inhibition; format: cell-based; conditions: Homo sapiens, U-937, 72 h, MTT, 72 hours incubation, read-out: GI50 U93
Excerpt: as §1, §2, §3, §4, §5, §6, §7

[20] = tested on: lncap (prostate cancer cells); experiment: MTT cancer cell growth inhibition; format: cell-based; conditions: Homo sapiens, LNCaP, 72 h, MTT, 72 hours incubation, read-out: GI50 lnca
Excerpt: as §1, §2, §3, §4, §5, §6, §7

Structure (SMILES)	IC50 HDAC7 (HDAC7)	GI50 ([1]; A549 cells) [nM]	GI50 ([2]; BGC-823 cells) [nM]	GI50 [3] [nM]	GI50 ([4]; DU145 cells) [nM]	GI50 [5] [nM]	GI50 [6] [nM]	GI50 ([7]; HT1080 cells) [nM]	GI50 ([8]; Hela cells) [nM]	GI50 [9] [nM]	GI50 [10] [nM]	GI50 [11] [nM]	GI50 [12] [nM]	GI50 ([13]; MCF-7 cells) [nM]	GI50 [14] [nM]	GI50 ([15]; MOLT-4 cells) [nM]	GI50 [16] [nM]	GI50 ([17]; PANC-1 cells) [nM]	GI50 [18] [nM]	GI50 ([19]; U937 cells) [nM]	also measured
C/C=C1\NC(=O)c2cc(SC)cc(n2)CNC(=O)C[C@@H](/C=C/CCS)OC(=O)[C@H](C)NC1=O [Compound 233]	no activity	20	60	81	50	51	81	70	50	41	24	97	46	20	36	30	35	20	51	80	GI50 ([20]; lncap cells): 20 nM
C/C=C1\NC(=O)c2ccc(SC)c(n2)CNC(=O)C[C@@H](/C=C/CCSC(=O)CCCC)OC(=O)[C@H](C(C)C)NC1=O [Compound 158]	no activity	30	30	45	60	49	91	70	60	41	48	46	27	20	46	80	38	20	27	40	GI50 ([20]; lncap cells): 40 nM
C/C=C1\NC(=O)c2nc(ccc2SC)CNC(=O)C[C@@H](/C=C/CCSC(C)=O)OC(=O)[C@H](Cc2cccc3ccccc23)NC1=O [Compound 198]	no activity	50	70	63	50	31	57	20	30	47	79	99	43	110	45	20	38	30	16	50	GI50 ([20]; lncap cells): 90 nM

Further compounds by falling GI50 [3], results first:

IC50 HDAC7 (HDAC7)	GI50 ([1]; A549 cells) [nM]	GI50 ([2]; BGC-823 cells) [nM]	GI50 [3] [nM]	GI50 ([4]; DU145 cells) [nM]	GI50 [5] [nM]	GI50 [6] [nM]	GI50 ([7]; HT1080 cells) [nM]	GI50 ([8]; Hela cells) [nM]	GI50 [9] [nM]	GI50 [10] [nM]	GI50 [11] [nM]	GI50 [12] [nM]	GI50 ([13]; MCF-7 cells) [nM]	GI50 [14] [nM]	GI50 ([15]; MOLT-4 cells) [nM]	GI50 [16] [nM]	GI50 ([17]; PANC-1 cells) [nM]	GI50 [18] [nM]	GI50 ([19]; U937 cells) [nM]	Structure (SMILES)	also measured
no activity	–	–	83	–	37	34	–	–	84	25	73	27	–	98	–	35	–	24	–	C=C1NC(=O)c2cccc(n2)CNC(=O)C[C@@H](/C=C/CCSC(C)=O)OC(=O)[C@H](C)NC1=O [Example 21]	GI50 [1]: 330 nM; GI50 [2]: 870 nM; GI50 [4]: 990 nM; GI50 [7]: 1050 nM; GI50 [8]: 400 nM; GI50 [13]: 100 nM; GI50 [15]: 1010 nM; GI50 [17]: 1170 nM; GI50 [19]: 5110 nM; GI50 [20]: 1210 nM
no activity	30	60	62	50	38	37	20	80	21	36	21	43	40	27	90	65	50	53	60	C/C=C1\NC(=O)c2nc(cc(SC)n2)CNC(=O)C[C@@H](/C=C/CCSC(C)=O)OC(=O)[C@H](C)NC1=O [Compound 218]	GI50 ([20]; lncap cells): 50 nM
no activity	50	40	14	30	83	63	70	20	39	83	43	35	70	52	30	98	30	47	80	C/C=C1\NC(=O)c2ccc(SC)c(n2)CNC(=O)C[C@@H](/C=C/CCSC(C)=O)OC(=O)[C@@H](C)NC1=O [Compound 222]	GI50 ([20]; lncap cells): 60 nM

Source: patent US10065990B2, “Cyclic peptide compound, and preparation method, pharmaceutical composition and use thereof” (HANGZHOU GUANYU BIO-MEDICAL CO., LTD, priority 2013, dated 2018)
